{"source": "patent US20130067618A1", "about": "“METHODS AND COMPOSITIONS FOR WEED CONTROL” (priority 2011, published 2013)", "key": {"[1]": {"test_system": "Amaranthus palmeri plants (glyphosate-resistant Palmer amaranth, \"R-22\")", "assay": "Topical ssDNA ALS2 promoter oligonucleotide pool followed by Staple herbicide; plant height", "type": "in vivo", "details": "testing repeated with individual oligonucleotides", "method": "In this example, growing Amaranthus palmeri plants were treated with a topically applied composition for inducing modulation of a target gene in a plant including (a) an agent for conditioning of a plant to transfer of the polynucleotides and (b) polynucleotides including at least one ssDNA polynucleotide strand including at least one segment of 18-21 contiguous nucleotides of the target gene in sense (S) orientation. […]\nApproximately four-week old greenhouse grown Amaranthus palmeri plants (glyphosate-resistant Palmer amaranth, “R-22”) were used in this assays. […] The ssDNA ALS2 oligonucleotide composition was applied and followed 24 hours later by the herbicide treatment, Staple® (2-Chloro-6-{(4,6-dimethoxy-2-pyrimidinyl)thio}benzoic acid sodium salt, pyrithiobac sodium 85 percent, Dupont, Wilmington, Del.) at ¼×(27 g ai/ha (grams active ingredient per hectare) rate for the ssDNA ALS2 oligonucleotide treated plants and 1× rate (108 g ai/ha) for the untreated plants, five replications per treatment and the data is presented as percentage height of the untreated control. Plant height is determined at seven days after herbicide treatment."}, "[2]": {"test_system": "ALS inhibitor resistant Palmer amaranth plants (A3, ALS inhibitor herbicide biotype)", "assay": "ALS_pro_S1 trigger followed by Staple or Classic herbicide on ALS inhibitor resistant plants", "type": "in vivo, Amaranthus palmeri", "details": "dsDNA trigger, FIG. 2", "method": "Thus, ssDNA ALS2 oligonucleotide treatment followed by Staple® at 1 h and 24 h caused 50 percent and 60 percent growth reduction, relative to the untreated control, while Staple® alone at 27 (1 h and 24 h) and 108 (24 h) g ai/ha caused 35 percent, 30 percent, and 40 percent growth reduction, respectively. […] ALS_pro 51 dsDNA trigger molecule was applied to ALS inhibitor resistant Palmer amaranth plants (A3, ALS inhibitor herbicide biotype) followed by ALS inhibitor herbicides 1× Staple® at 108 g ai/ha or 2× Classic® (Chlorimuron Ethyl 25DF, Dupont, Willmington, Del., 2× rate is 70 g ai/ha) at +COC (crop oil concentrate) 24 hr after trigger application."}, "[3]": {"test_system": "Amaranthus palmeri plants (Palmer amaranth A3)", "assay": "Tiling test of pooled trigger molecules to ALS large subunit gene, followed by Staple; visual injury", "type": "in vivo", "method": "Approximately four-week old (3-4 inches tall) greenhouse grown Amaranthus palmeri plants (Palmer amaranth A3) were used in these assays. The plants were spray treated in a greenhouse with the ALStile composition, each composition having six trigger oligonucleotides (Table 3) and a formulation comprising 1 percent Silwet L-77 solution, 2 percent ammonium sulfate and 20 mM sodium phosphate and the concentration of each oligonucleotide was approximately 4 nmol. Spray solutions were prepared the same day as spraying and applied using a track sprayer with a FLATfan nozzle 9501E at 165 psi (pounds/square inch) at a rate of 93 g/ha (grams/hectare). The dsDNA ALStile pool oligonucleotide composition was applied and followed 24 hours later by the herbicide treatment, Staple® (2-Chloro-6-{(4,6-dimethoxy-2-pyrimidinyl)thio}benzoic acid sodium salt, pyrithiobac sodium 85 percent, Dupont, Wilmington, Del.) at 108 g/ha (grams per hectare), five replications per treatment and the data is presented as a visual score of percentage injury determined fourteen days after herbicide application."}, "[4]": {"details": "trigger pool (about 4 nmol each) or formulation, Staple @ 108 g/ha 24 h later, 14 days after herbicide, A3"}}}
{"substance": "ALSpro_S1: trigger TCTTCTCCGACTCTCACAA, SEQ ID NO:4202; ssDNA in Table 2, dsDNA in b81, dsRNA in Table 3 (chemistry not fully specified; listed as Amaranthus palmeri)", "values": [{"measurement": "ALS inhibitor herbicide enhancing activity of the individual trigger molecule", "setting": "[1]", "value": "effective trigger molecule"}, {"measurement": "improvement of herbicide activity on ALS inhibitor resistant plants", "setting": "[2]; then 1x Staple at 108 g ai/ha 24 hr after trigger", "value": "substantially improved the activity"}, {"measurement": "improvement of herbicide activity on ALS inhibitor resistant plants", "setting": "[2]; then 2x Classic (70 g ai/ha) + COC 24 hr after trigger", "value": "substantially improved the activity"}, {"measurement": "herbicide enhancing activity relative to the formulation control", "setting": "[3]; A3 biotype, Staple @ 108 g/ha", "value": "herbicide enhancing activity"}, {"measurement": "visual score of percentage injury, avg", "setting": "[3]; average of five replications, trigger pool or formulation, Staple @ 108 g/ha 24 h later, 14 days after herbicide, A3", "value": 100, "unit": "%"}, {"measurement": "visual score of percentage injury, Rep1", "setting": "[3]; [4]", "value": 100, "unit": "%"}, {"measurement": "visual score of percentage injury, Rep2", "setting": "[3]; [4]", "value": 100, "unit": "%"}, {"measurement": "visual score of percentage injury, Rep3", "setting": "[3]; [4]", "value": 100, "unit": "%"}, {"measurement": "visual score of percentage injury, Rep4", "setting": "[3]; [4]", "value": 100, "unit": "%"}, {"measurement": "visual score of percentage injury, Rep5", "setting": "[3]; [4]", "value": 100, "unit": "%"}]}
